Source: PMC7804859, “A metabolically stable apelin-17 analog decreases AVP-induced antidiuresis and improves hyponatremia” (Nature Communications, 2021)
“And” between values parts separate entries of the source, which are not always exact repeats. Equal entries are not always repeated.

Experiments:
[1] = tested on: mpkCCD cells; assay: Forskolin-induced cAMP production in mpkCCD cells; type: cell-based, mouse
Method: 152 Supplementary Methods
154 We quantified cAMP production with the cAMP dynamic 2 assay kit (Cisbio Bioassays,
155 Codolet, France), which is based on homogeneous time-resolved fluorescence (HTRF)
156 technology, as previously described 1. For cells expressing the Apelin-R, 2000 CHO cells/well
157 stably expressing rat apelinR-EGFP (clone B70) were added to the 384-well plate and
158 stimulated with 5 µmol/l forskolin (FSK) and various concentrations (0.01 pmol/l to 100
For cells expressing the V2-R, HEK-
160 293T cells were transiently transfected with the human V2-R (cDNA Resource Center), after
161 48h, 4000 cells/well were added to white 384-well optiplates and stimulated either with 5
Cells were then lysed, and
165 cAMP levels were determined in accordance with the kit manufacturer’s instructions.
166 Stimulation was performed in stimulation buffer-IBMX (SBI) (Hank’s balanced salt solution
167 (HBSS-Life Technology), 5 mmol/l Hepes, 0.1% BSA stabilizer (Perkin Elmer), 1 mmol/l
168 isobutylmethylxanthine (IBMX, Sigma Aldrich, pH 7.4)). For cAMP assay with mpkCCD
169 cells, the cells were grown on 12 mm Transwell filters (0.4 μm pore size, Corning Costar,
170 Cambridge, MA) until they reach confluency (4-5 days). For forskolin experiments, culture
171 media was replaced with SBI in apical and basolateral compartments. After 30 min of […]

[2] = tested on: control Sprague-Dawley rats; assay: Effects of i.v. administration on urine output, urine osmolality and water intake in normonatremic rats; type: in vivo, rat
Method: Male Swiss mice (25–30 g, 4–6 weeks) and male Sprague–Dawley rats (210–230 g, 6–8 weeks) were obtained from Charles River Laboratories (L’Arbresle, France). While housed in our animal facility, they were given free access to normal chow and water, and they were maintained under 12-h light/dark cycles throughout the study. Temperature was maintained between 18 and 22 °C, and humidity between 40 and 60%. When required for i.v. administration, a right femoral venous catheter was implanted in the rats, by tunneling under the skin, under isoflurane anesthesia (4% for induction, 2% for maintenance). Meloxicam (Metacam) was administered postoperatively (1 mg/kg s.c.) for analgesia.

[3] = in vivo; conditions: for Apelin (plasma apelin-immunoreactive level): single animals
Method: (§1) 187 Apelin radioimmunoassay
188 Plasma samples (0.5 ml) were acidified with 0.175 ml of 3 mol/l HCl and stored at -80°C
189 until use for apelin RIA. Before thawing the sample on ice, 0.05% BSA was added, and the
190 samples were centrifuged at 20000 x g at 4°C for 10 min. The supernatants were collected and
191 the pH was adjusted to 6.5 with 10 mol/l NaOH and 2 mol/l Tris-HCl buffer (pH 7.4). Apelin
192 was extracted from plasma by mixing the supernatant with 0.3 ml of 0.1% BSA in H2O and 1
193 ml of 1% trifluoroacetic acid (TFA) - 0.1% BSA, and running the mixture on a Sep-Pak C18
194 cartridge (Waters) previously washed with 2 ml 100% acetonitrile and equilibrated with 5 ml
195 1% TFA - 0.1% BSA. The columns then were washed with 3 ml 1% TFA - 0.1% BSA and
196 apelin was eluted with 1.5 ml 100% acetonitrile. […]
208 Plasma or brain apelin levels w ere deter mined by RIA. Samples (0.1ml) w ere mixed with 125I-
211 dilution: 1/4500) to give a total volume of 0.2 ml and were incubated at 4°C overnight. We
(§2) 212 used this radioligand instead of [Glp65, Nle75, Tyr77] [125I]-apelin13 since the substitution of
(§3) 214 derivatives as described previously by 3,4.
215 We then added 0.5 ml of Amerlex (Amersham RPN 510), and the resulting mixture was
216 incubated for 10 min at room temperature. The tubes were centrifuged at 2600 x g at 4°C for
217 20 min. The supernatant was removed and the radioactivity of the precipitates was measured.
218 We assessed the cross-reactivity of the apelin antiserum with various N- and C-terminally
232 according to the following equation: [plasma apelin] tx = [plasma apelin] t0 * e(-kt) , where k is
233 the elimination rate constant. […]

[4] = tested on: control rats; assay: Plasma AVP and apelin-IR levels in control rats (RIA); type: in vivo, rat; parameters: Apelin / AVP: unit not given here
Method: as §1
189 until use for apelin RIA.
The supernatants were collected and
The samples were dried and dissolved in
201 centrifuged (17000 x g, 4°C, 20 min). The supernatant (4 ml) was collected, and mixed with
(§4) The columns were then treated as described in
(§5) Samples (0.1ml) w ere mixed with 125I-
as §2, §3
(§6) 216 incubated for 10 min at room temperature.
(§7) This antiserum identified the apelin present in the
Most of the apelin in human plasma was
252 TechMedILL platfor m (Illkirch) reviewed and approved by the agriculture ministry regulating
256 Male Sprague-Dawley rats were killed by decapitation, and trunk blood was collected on ice
257 (into 50 µl of 0.3M EDTA (pH 7.4) per 1 ml of blood). Samples were centrifuged (2,600 x g,
258 4°C, 20 min), and the resulting plasma was split into 500 µl aliquots, to which we added 168
259 µl of 3N HCl before storage at -80°C. The AVP RIA was performed as previously described
260 5, using a specific AVP-[Arg8] antibody (final dilution, 1/4.5) and [125I]-(Tyr2Arg8)-AVP
261 (2200 Ci/mmol, Perkin-Elmer, Billerica, MA; 15000 dpm) as a tracer. […]

[5] = biological target: anti-K17F serum; assay: Inhibition of [125I]-pE13F binding to anti-K17F serum (apelin RIA, cross-reactivity); parameters: species or system rabbit; conditions: read-out: IC50, recognition by antibody directed against K17F, antiserum 1/4500
Method: as §4, §5, §2, §3, §6, §7
Most of the apelin in human plasma was […]

[6] = 15 nmol/kg i.v., control rats, 24 h, n = 6

SMILES: CSCC[C@H](NC(=O)[C@@H]1CCCN1C(=O)CNC(=O)[C@H](CCCCN)NC(=O)[C@H](Cc1c[nH]cn1)NC(=O)[C@H](CO)NC(=O)[C@H](CC(C)C)NC(=O)[C@H](CCCNC(=N)N)NC(=O)[C@@H]1CCCN1C(=O)[C@H](CCCNC(=N)N)NC(=O)[C@H](CCC(N)=O)NC(=O)[C@H](CCCNC(=N)N)NC(=O)[C@H](CCCNC(=N)N)NC(=O)[C@H](Cc1ccccc1)NC(=O)[C@H](CCCCN)NC(=O)CCC(F)(F)C(F)(F)C(F)(F)C(F)(F)C(F)(F)C(F)(F)C(F)(F)C(F)(F)F)C(=O)N1CCC[C@H]1C(=O)N[C@@H](Cc1ccccc1)C(=O)O [LIT01-196]
- inhibition of cAMP production induced by forskolin ([1]; 1 µmol/l compound, forskolin 1 µmol/l, mpkCCD cells, 30 min 37 °C): 32%
- Forskolin-induced cAMP production, value (Fig 2C) ([1]; Forskolin + peptide, single measurements): 89
- decrease in urine osmolality relative to saline [2, 6]: 38%
- increase in urine output relative to saline [2, 6]: 95%
- water intake ([2]; i.v., K17F 400 nmol/kg, LIT01-196 15 nmol/kg, 24 hours): did not induce a significant change
- plasma apelin levels ([3]; Sprague-Dawley rats, 30 min after s.c. 900 nmol/kg, basal 0.36 ± 0.05, n = 5): 1.3 ± 0.22 pmol/mL
- in vivo half-life in the blood circulation, i.v. ([3]; alert rats, 15 nmol/kg i.v., RIA): 0.467 h
- in vivo half-life in the blood circulation, s.c. ([3]; alert rats, 900 nmol/kg s.c., RIA): 2.6 h
- Apelin (plasma apelin-immunoreactive level) ([3]; rats, 15 nmol/kg IV, time 5 min): 3.535 and 7.0448
- Apelin (plasma apelin-immunoreactive level) ([3]; rats, 15 nmol/kg IV, time 7.5 min): 6.127 and 4.75 and 3.783
- Apelin (plasma apelin-immunoreactive level) ([3]; rats, 15 nmol/kg IV, time 10 min): 3.32 and 4.264
- Apelin (plasma apelin-immunoreactive level) ([3]; rats, 15 nmol/kg IV, time 15 min): 3.56 and 2.876 and 2.207
- Apelin (plasma apelin-immunoreactive level) ([3]; rats, 15 nmol/kg IV, time 60 min): 1.212 and 1.2225
- Apelin (plasma apelin-immunoreactive level) ([3]; rats, 900 nmol/kg SC, time 60 min): 3.999 and 3.58
- Apelin (plasma apelin-immunoreactive level) ([3]; rats, 900 nmol/kg SC, time 120 min): 2.002 and 1.919 and 1.949
- Apelin (plasma apelin-immunoreactive level) ([3]; rats, 900 nmol/kg SC, time 270 min): 1.1931 and 0.8899 and 1.066
- Apelin (plasma apelin-immunoreactive level) ([3]; rats, 900 nmol/kg SC, time 360 min): 1.029 and 0.9091 and 0.7789
- Apelin (plasma apelin-immunoreactive level) ([3]; rats, 900 nmol/kg SC, time 1440 min): 0.4742 and 0.5151 and 0.6469
- plasma apelin levels, times higher than basal levels ([3]; rats, 30 min after s.c. 900 nmol/kg): 3.6 times
- plasma apelin-IR levels, higher than in control rats ([4]; 3 h after 900 nmol/kg s.c.): 185%
- plasma apelin/AVP ratio, higher than in control rats ([4]; 3 h after 900 nmol/kg s.c.): 105%
- plasma AVP levels, higher than in animals receiving saline ([4]; 3 h after s.c., tolvaptan 6700 nmol/kg, LIT01-196 900 nmol/kg): 37%
- AVP ([4]; plasma AVP, LIT01-196 900 nmol/kg SC, individual animals (Fig. S4F source data)): 22.8083 and 24.884 and 19.0278 and 19.6598 and 20.1271 and 24.6505 and 19.9264
- Apelin ([4]; plasma apelin-IR, LIT01-196 900 nmol/kg SC, individual animals (Fig. S4E source data)): 1622 and 1536 and 1658 and 938 and 943 and 1033 and 1679
- apelinAVPratio ([4]; plasma apelin/AVP ratio, LIT01-196 900 nmol/kg SC, individual animals (Fig. S4G source data)): 71.1145 and 61.7264 and 87.1356 and 47.7116 and 46.8522 and 41.9059 and 84.2603
- IC50 [5]: 560 ± 40 pM
